Target: T1, recombinant Vps34 (Homo sapiens, UniProt Q8NEB9)
T1 construct: purchased Invitrogen PV5126
Assay: Phosphorylation of phosphatidylinositol (PI) by Vps34 in vitro, ADP detected by TR-FRET (HTRF Transcreener ADP)
Assay type: biochemical
Conditions: 10 μM ATP, 55 μg/ml PI, approximately 3 nM Vps34, 1 hour at ambient temperature; absolute IC50, mean of two independent experiments; read-out: IC50 activity range

T1 sequence (Q8NEB9 whole entry): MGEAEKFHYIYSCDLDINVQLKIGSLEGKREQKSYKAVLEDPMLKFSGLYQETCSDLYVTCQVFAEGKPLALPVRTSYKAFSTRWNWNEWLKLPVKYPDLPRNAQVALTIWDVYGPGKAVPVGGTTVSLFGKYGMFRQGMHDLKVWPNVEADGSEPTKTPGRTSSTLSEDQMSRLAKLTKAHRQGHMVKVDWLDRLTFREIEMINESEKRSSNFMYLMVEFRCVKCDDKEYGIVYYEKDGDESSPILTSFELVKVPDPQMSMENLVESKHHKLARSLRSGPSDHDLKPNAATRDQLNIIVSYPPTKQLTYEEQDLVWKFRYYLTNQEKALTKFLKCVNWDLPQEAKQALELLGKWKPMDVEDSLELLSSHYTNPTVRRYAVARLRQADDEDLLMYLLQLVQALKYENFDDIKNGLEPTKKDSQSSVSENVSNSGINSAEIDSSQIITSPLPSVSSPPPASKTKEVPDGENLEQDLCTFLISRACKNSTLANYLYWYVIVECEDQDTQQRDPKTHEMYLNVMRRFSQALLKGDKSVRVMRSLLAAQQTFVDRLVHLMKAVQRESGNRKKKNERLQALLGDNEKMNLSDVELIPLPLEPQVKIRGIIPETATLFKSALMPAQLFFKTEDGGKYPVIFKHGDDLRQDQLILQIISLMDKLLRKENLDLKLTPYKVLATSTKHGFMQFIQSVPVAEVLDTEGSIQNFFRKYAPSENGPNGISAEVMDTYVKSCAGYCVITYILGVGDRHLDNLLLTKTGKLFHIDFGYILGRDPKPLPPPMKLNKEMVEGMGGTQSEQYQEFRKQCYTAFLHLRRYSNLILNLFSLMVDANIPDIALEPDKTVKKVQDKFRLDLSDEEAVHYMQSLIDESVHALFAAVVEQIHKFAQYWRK

Row | SMILES | IC50 [nM]
1 | C[C@@H]1COCCN1c1nc2n(c(=O)c1F)CC[C@@H](C(F)(F)F)N2CC(=O)C1CC1 [Example 6, (S)-9-(2-Cyclopropyl-2-oxoethyl)-3-fluoro-2-((R)-3-methyl-morpholin-4-yl)-8-trifluoromethyl-6,7,8,9-tetrahydro-pyrimido[1,2-a]-pyrimidin-4-one] | < 10
2 | C[C@@H]1COCCN1c1cc(=O)n2c(n1)N(Cc1noc(C(C)(C)C)n1)[C@H](C(F)(F)F)CC2 [Example 203, (S)-9-(5-tert-Butyl-[1,2,4]oxadiazol-3-yl-methyl)-2-((R)-3-methylmorpholin-4-yl)-8-trifluoromethyl-6,7,8,9-tetrahydro-pyrimido[1,2-a]-pyrimidin-4-one] | < 10
3 | C[C@@H]1COCCN1c1cc(=O)n2c(n1)N(CC(=O)OC1CCCC1)[C@H](C(F)(F)F)CC2 [Example 243, [(S)-8-((R)-3-Methyl-morpholin-4-yl)-6-oxo-2-trifluoromethyl-3,4-dihydro-2H,6H-pyrimido[1,2-a]-pyrimidin-1-yl]acetic acid cyclopentyl ester] | < 10
4 | C[C@@H]1COCCN1c1nc2n(c(=O)c1F)CC[C@@H](C(F)(F)F)N2c1cccnc1 [Example 47, (S)-3-Fluoro-2-((R)-3-methylmorpholin-4-yl)-9-pyridin-3-yl-8-trifluoromethyl-6,7,8,9-tetrahydro-pyrimido[1,2-a]-pyrimidin-4-one] | 10 to 100
5 | C[C@@H]1COCCN1c1cc(=O)n2c(n1)N(CC(=O)C1CC1)[C@](C)(C(F)(F)F)C2 [Example 31, (S)-1-(2-Cyclopropyl-2-oxoethyl)-2-methyl-7-((R)-3-methyl-morpholin-4-yl)-2-trifluoromethyl-2,3-dihydro-1H-imidazo[1,2-a]-pyrimidin-5-one] | < 10
6 | Cc1nc(CN2c3nc(N4CCOC[C@H]4C)cc(=O)n3CC[C@H]2C(F)(F)F)c(C)o1 [Example 93, (S)-9-(2,5-Dimethyl-oxazol-4-ylmethyl)-2-((R)-3-methyl-morpholin-4-yl)-8-trifluoromethyl-6,7,8,9-tetrahydro-pyrimido[1,2-a]-pyrimidin-4-one] | < 10
7 | C[C@@H]1COCCN1c1nc2n(c(=O)c1F)CC[C@@H](C(F)(F)F)N2CC(F)C1CC1 (single isomer, unassigned) [Example 331] | < 10
8 | C[C@H](O)CN1c2nc(N3CCOC[C@H]3C)c(F)c(=O)n2CC[C@H]1C(F)(F)F [Example 8, (S)-3-Fluoro-9-((S)-2-hydroxypropyl)-2-((R)-3-methylmorpholin-4-yl)-8-trifluoromethyl-6,7,8,9-tetrahydro-pyrimido[1,2-a]-pyrimidin-4-one] | < 10
9 | C[C@@H]1COCCN1c1cc(=O)n2c(n1)N(Cc1ccc(Cl)nc1)CC[C@@H]2C(F)(F)F [Example 115, (R)-9-(6-Chloro-pyridin-3-ylmethyl)-2-((R)-3-methyl-morpholin-4-yl)-6-trifluoromethyl-6,7,8,9-tetrahydro-pyrimido[1,2-a]-pyrimidin-4-one] | < 10
10 | CC1(C)COCCN1c1cc(=O)n2c(n1)N(CC(=O)c1ccccc1)[C@H](C(F)(F)F)CC2 [Example 150, (S)-2-(3,3-Dimethyl-morpholin-4-yl)-9-(2-oxo-2-phenylethyl)-8-trifluoromethyl-6,7,8,9-tetrahydro-pyrimido[1,2-a]-pyrimidin-4-one] | 10 to 100
11 | CC(C)c1noc(CN2c3nc(N4CCOC[C@H]4C)c(F)c(=O)n3CC[C@H]2C(F)(F)F)n1 [Example 248, (S)-3-Fluoro-9-(3-isopropyl-[1,2,4]oxadiazol-5-yl-methyl)-2-((R)-3-methylmorpholin-4-yl)-8-trifluoromethyl-6,7,8,9-tetrahydro-pyrimido[1,2-a]-pyrimidin-4-one] | < 10
12 | C[C@@H]1COCCN1c1nc2n(c(=O)c1F)CC[C@@H](C(F)(F)F)N2c1ccc(C(F)F)nc1 [Example 53, (S)-9-(6-Difluoromethylpyridin-3-yl)-3-fluoro-2-((R)-3-methylmorpholin-4-yl)-8-trifluoromethyl-6,7,8,9-tetrahydro-pyrimido[1,2-a]-pyrimidin-4-one] | < 10
13 | Cc1noc(CN2CC[C@H](C(F)(F)F)n3c2nc(N2CCOC[C@H]2C)c(F)c3=O)n1 [Example 149, (R)-3-Fluoro-2-((R)-3-methylmorpholin-4-yl)-9-(3-methyl-[1,2,4]oxadiazol-5-yl-methyl)-6-trifluoromethyl-6,7,8,9-tetrahydro-pyrimido[1,2-a]-pyrimidin-4-one] | < 10
14 | CON(C)C(=O)CN1c2nc(N3CCOC[C@H]3C)cc(=O)n2CC[C@H]1C(F)(F)F [Example 196, N-Methoxy-N-methyl-2-[(S)-8-((R)-3-methyl-morpholin-4-yl)-6-oxo-2-trifluoromethyl-3,4-dihydro-2H,6H-pyrimido[1,2-a]-pyrimidin-1-yl]-acetamide] | < 10
15 | C[C@@H]1COCCN1c1cc(=O)n2c(n1)N(CC(C)(C)O)CC[C@@H]2C(F)(F)F [Example 113, (R)-9-(2-Hydroxy-2-methylpropyl)-2-((R)-3-methylmorpholin-4-yl)-6-trifluoromethyl-6,7,8,9-tetrahydro-pyrimido[1,2-a]-pyrimidin-4-one] | 10 to 100
16 | C[C@@H]1COCCN1c1nc2n(c(=O)c1F)CC[C@@H](C(F)(F)F)N2Cc1ccnc(F)c1 [Example 5, (S)-3-Fluoro-9-(2-fluoropyridin-4-yl-methyl)-2-((R)-3-methylmorpholin-4-yl)-8-trifluoromethyl-6,7,8,9-tetrahydro-pyrimido[1,2-a]-pyrimidin-4-one] | < 10
17 | Cc1nc(CN2c3nc(N4CCOC[C@H]4C)c(F)c(=O)n3C[C@@]2(C)C(F)(F)F)no1 [Example 30, (S)-6-Fluoro-2-methyl-7-((R)-3-methyl-morpholin-4-yl)-1-(5-methyl-[1,2,4]oxadiazol-3-yl-methyl)-2-trifluoromethyl-2,3-dihydro-1H-imidazo[1,2-a]-pyrimidin-5-one] | < 10
18 | C[C@@H]1COCCN1c1cc(=O)n2c(n1)N(CC(=O)c1ncccc1F)[C@H](C(F)(F)F)CC2 [Example 60, (S)-9-[2-(3-Fluoro-pyridin-2-yl)-2-oxo-ethyl]-2-((R)-3-methyl-morpholin-4-yl)-8-trifluoromethyl-6,7,8,9-tetrahydro-pyrimido[1,2-a]-pyrimidin-4-one] | < 10
19 | CC(C)CC(=O)CN1c2nc(N3CCOC[C@H]3C)cc(=O)n2CC[C@H]1C(F)(F)F [Example 276, (S)-2-((R)-3-Methyl-morpholin-4-yl)-9-(4-methyl-2-oxo-pentyl)-8-trifluoromethyl-6,7,8,9-tetrahydro-pyrimido[1,2-a]-pyrimidin-4-one] | < 10
20 | CO/N=C(/CN1c2nc(N3CCOC[C@H]3C)cc(=O)n2CC[C@H]1C(F)(F)F)C1CC1 (single isomer, unassigned) [Example 306] | < 10

Continued, values first:

Row | IC50 [nM] | SMILES
21 | > 100 | CC(=O)N1c2nc(N3CCOC[C@H]3C)cc(=O)n2CC[C@H]1C(F)(F)F [Example 238, (S)-9-Acetyl-2-((R)-3-methylmorpholin-4-yl)-8-trifluoromethyl-6,7,8,9-tetrahydro-pyrimido[1,2-a]-pyrimidin-4-one]
22 | < 10 | CC(C)C(=O)CN1c2nc(N3CCOC[C@H]3C)cc(=O)n2CC[C@@]1(C)C(F)(F)F [Example 252, (S)-8-Methyl-2-((R)-3-methylmorpholin-4-yl)-9-(3-methyl-2-oxo-butyl)-8-trifluoromethyl-6,7,8,9-tetrahydro-pyrimido[1,2-a]-pyrimidin-4-one]
23 | < 10 | C[C@@H]1COCCN1c1nc2n(c(=O)c1F)CC[C@@H](C(F)(F)F)N2Cc1nc(C(C)(C)C)no1 [Example 250, (S)-9-(3-tert-Butyl-[1,2,4]oxadiazol-5-yl-methyl)-3-fluoro-2-((R)-3-methyl-morpholin-4-yl)-8-trifluoromethyl-6,7,8,9-tetrahydro-pyrimido[1,2-a]-pyrimidin-4-one]
24 | 10 to 100 | C[C@@H]1COC[C@@H](C)N1c1cc(=O)n2c(n1)N(Cc1ccc(Cl)nc1)[C@H](C(F)(F)F)CC2 [Example 156, (S)-9-(6-Chloro-pyridin-3-ylmethyl)-2-((3R,5R)-3,5-dimethyl-morpholin-4-yl)-8-trifluoromethyl-6,7,8,9-tetrahydro-pyrimido[1,2-a]-pyrimidin-4-one]
25 | 10 to 100 | CC1CN(c2cc(=O)n3c(n2)N(Cc2ccccc2)[C@H](C(F)(F)F)CC3)CCO1 (single isomer, unassigned) [Example 191]
26 | < 10 | Cc1cc(CN2c3nc(N4CCOC[C@H]4C)cc(=O)n3CC[C@H]2C(F)(F)F)on1 [Example 101, (S)-9-(3-Methyl-isoxazol-5-ylmethyl)-2-((R)-3-methyl-morpholin-4-yl)-8-trifluoromethyl-6,7,8,9-tetrahydro-pyrimido[1,2-a]-pyrimidin-4-one]
27 | < 10 | C[C@@H]1COCCN1c1nc2n(c(=O)c1F)CC[C@@H](C(F)(F)F)N2CC(=O)c1ccccn1 [Example 38, (S)-3-Fluoro-2-((R)-3-methylmorpholin-4-yl)-9-(2-oxo-2-pyridin-2-ylethyl)-8-trifluoromethyl-6,7,8,9-tetrahydro-pyrimido[1,2-a]-pyrimidin-4-one]
28 | < 10 | C[C@@H]1COCCN1c1cc(=O)n2c(n1)N(Cc1ccn(C(F)F)n1)[C@H](C(F)(F)F)CC2 [Example 32, (S)-9-(1-Difluoromethyl-1H-pyrazol-3-ylmethyl)-2-((R)-3-methyl-morpholin-4-yl)-8-trifluoromethyl-6,7,8,9-tetrahydro-pyrimido[1,2-a]-pyrimidin-4-one]
29 | < 10 | C[C@@H]1COCCN1c1cc(=O)n2c(n1)N(CC(F)C1CC1)[C@H](C(F)(F)F)CC2 (single isomer, unassigned) [Example 325]
30 | 10 to 100 | O=c1cc(N2CC3CCC(C2)O3)nc2n1CC[C@@H](C(F)(F)F)N2Cc1ccon1 [Example 169, (S)-9-Isoxazol-3-yl-methyl-2-(8-oxa-3-azabicyclo[3.2.1]oct-3-yl)-8-trifluoromethyl-6,7,8,9-tetrahydro-pyrimido[1,2-a]-pyrimidin-4-one]
31 | 10 to 100 | C[C@@H]1COCCN1c1cc(=O)n2c(n1)N(Cc1ccnn1C(F)F)C(C)(C)CC2 [Example 72, 9-(2-Difluoromethyl-2H-pyrazol-3-yl-methyl)-8,8-dimethyl-2-((R)-3-methyl-morpholin-4-yl)-6,7,8,9-tetrahydro-pyrimido[1,2-a]-pyrimidin-4-one]
